# Measurements taken from ChEMBL document CHEMBL1132474, “Synthesis and biological evaluation of the first N-alkyl cage dimeric 4-aryl-1,4-dihydropyridines as novel nonpeptidic HIV-1 protease inhibitors” (J Med Chem, 1999).
# Target: T1, Human immunodeficiency virus type 1 protease (Human immunodeficiency virus 1, UniProt Q72874)
# Test: compound was evaluated for the inhibition of HIV-1 protease
row,SMILES,IC50
1,OC[C@]12C3N(Cc4ccccc4)C4[C@](CO)(C5N(Cc6ccccc6)C1[C@]3(CO)[C@H](c1ccccc1)[C@@]45CO)[C@H]2c1ccccc1,16.1 µM
2,COc1ccc([C@H]2[C@@]3(CO)C4N(Cc5ccccc5)C5[C@]2(CO)C2N(Cc6ccccc6)C3[C@]4(CO)[C@H](c3ccc(OC)cc3)[C@@]52CO)cc1,33 µM
3,OC[C@]12C3NC4[C@](CO)(C5NC1[C@]3(CO)[C@H](c1ccccc1)[C@@]45CO)[C@H]2c1ccccc1,227 µM
4,COc1ccc([C@H]2[C@]3(CO)C4NC5[C@@]2(CO)C2NC3[C@@]4(CO)[C@H](c3ccc(OC)cc3)[C@]52CO)cc1,209 µM
5,CN1C2[C@]3(CO)C4N(C)C5[C@@](CO)(C1[C@@]5(CO)[C@@H](c1ccccc1)[C@]24CO)[C@H]3c1ccccc1,262 µM
6,COc1ccc([C@H]2[C@]3(CO)C4N(C)C5[C@]2(CO)C2N(C)C3[C@]4(CO)[C@H](c3ccc(OC)cc3)[C@]52CO)cc1,195 µM

# Target: T1, Human immunodeficiency virus type 1 protease
# Test: Compound was evaluated for its binding affinity against HIV-1 protease
row,SMILES,Ki
1,OC[C@]12C3N(Cc4ccccc4)C4[C@](CO)(C5N(Cc6ccccc6)C1[C@]3(CO)[C@H](c1ccccc1)[C@@]45CO)[C@H]2c1ccccc1,7.8 µM
